PMC4971055, “Identification and Characterization of the Corazonin Receptor and Possible Physiological Roles of the Corazonin-Signaling Pathway in Rhodnius prolixus” (Frontiers in Neuroscience, 2016)

Legend:
Rhopr-CRZR-α = assay: bioluminescence (calcium mobilizing) functional receptor assay, Rhopr-CRZR-α in CHOK1-aeq cells; type: cell-based, Rhodnius prolixus; conditions: for bioluminescence response (receptor activation): every 5 s over 15 s
Protocol: (§1) The ORF of the two Rhopr-CRZR variants were amplified and a Kozak translation initiation sequence was introduced at the 5′ end using primers listed in Supplementary Table 2. The resulting product was cloned into pGEM-T Easy vector and subcloned into pIRES2-ZsGreen1 (Clontech, Mountain View, CA, USA).
(§2) Chinese hamster ovary (CHO) cells stably expressing aequorin (CHOK1-aeq) (Paluzzi et al., [2010]) were cultured in complete media (94% Dulbecco's Modified Eagle Medium Nutrient Mixture F12-Ham (DMEM/F12) (Life Technologies Corporation, Carlsbad, CA, USA), 5% heat-inactivated fetal bovine serum (FBS), and 1% penicillin/streptomycin) containing 200 μg/mL Geneticin. The cells were incubated at 37°C in 5% CO2, and then transiently transfected with the expression vector for the receptor transcript variants using X-tremeGENE 9 DNA transfection reagent (Roche Applied Science, Indianapolis, IN, USA) at a ratio of 2:1 (transfection reagent to expression vector) using the manufacturer recommended protocol. Cells were also transiently transfected with an empty expression vector as a negative control.
(§3) The bioluminescence assay was performed 72 h post-transfection. The cells were first harvested with PBS/EDTA solution and suspended in bovine serum albumin BSA media (DMEM/F12 containing 1% BSA and 1% penicillin/streptomycin). The cells were incubated in the dark for 4–5 h at room temperature with 5 μM (final concentration) coelenterazine h (Promega, Madison, WI, USA) and then diluted 10-fold using BSA media. Various peptide concentrations were prepared with BSA media and loaded in triplicates on an opaque 96-well microplate. Cells were loaded into each well using an automated injector unit and luminescence was recorded over 15 s using a Wallac Victor2 plate reader (Perkin Elmer, San Diego, CA, USA). The peptides used were Rhopr-CRZ (pQTFQYSRGWTNamide), Rhopr-AKH (pQLTFSTDWamide), and Rhopr-ACP (pQVTFSRDWNAamide). Wells containing only the BSA media served as a blank control while wells containing 25, 50, and 100 μM ATP served as positive controls. Dose-response curves were obtained by averaging three replica plates and the EC50 values were determined using Prism5 software.

Rhopr-CRZR-β = assay: bioluminescence (calcium mobilizing) functional receptor assay, Rhopr-CRZR-β in CHOK1-aeq cells; type: cell-based, Rhodnius prolixus; conditions: for bioluminescence response (receptor activation): every 5 s over 15 s
Protocol: as §1, §2, §3

[1] = system: dorsal vessel of adult R. prolixus; assay: heartbeat assay in vitro; set-up: species or system Rhodnius prolixus; conditions: 10^−8 M Rhopr-CRZ; for increase in heartbeat frequency in vitro: compared to saline, n = 5
Protocol: Adult R. prolixus were anesthetized briefly with CO2 and injected with 2 μL of 2 μg/μL of dsCRZR or dsARG into the thorax using a 5 μL Hamilton syringe. Insects were left for 30 min at room temperature to recover and then kept in an incubator at 28°C on a 16 h: 8 h light/dark cycle. To determine knockdown efficiency, qPCR was performed 3 days post-injection.
Adult R. prolixus injected 3 days earlier with either dsCRZR or dsARG were dissected from the ventral surface under physiological saline (150 mM NaCl, 8.6 mM KCl, 2 mM CaCl2, 4 mM NaHCO3, and 8.5 mM MgCl2, 5 mM HEPES, pH 7.0). The digestive and reproductive systems were removed to expose the dorsal vessel. Electrodes attached to an impedance converter (UFI model 2991, Morro Bay, CA, USA) were positioned on either side of the dorsal vessel between the sixth and fifth abdominal segments. The heartbeat frequency was left to stabilize in 50 μL saline and the frequency of heartbeat measured from the traces recorded on a linear Flat-bed single channel chart recorder. The saline was then exchanged for 50 μL of 10^−8 M CRZ and the heartbeat frequency was again measured. The response to 10^−8 M CRZ was quantified by measuring the increase in heartbeat frequency compared to saline control.

Galleria mellonella = system: Galleria mellonella; set-up: method as in Hua et al., [2000]; Hansen et al., [2010]; conditions: ref Hua et al., [2000], Hansen et al., [2010]; cited from earlier work
Gryllus bimaculatus = system: Gryllus bimaculatus; set-up: method as in Hua et al., [2000]; Hansen et al., [2010]; conditions: ref Hua et al., [2000], Hansen et al., [2010]; cited from earlier work
5th instar R. prolixus = conditions: in vitro in 5th instar R. prolixus; ref Patel et al., [2014]; cited from earlier work
Excerpt: The percent knockdown of Rhopr-CRZR transcript after injection of dsCRZR into adult R. prolixus was quantified by qPCR in the dorsal vessel. […] The physiological effects of this decrease in Rhopr-CRZR on heartbeat frequency was studied in vivo and in vitro in adult R. prolixus.

Periplaneta americana = system: Periplaneta americana; set-up: method as in Veenstra, [1989]; conditions: cockroach Periplaneta americana; ref Veenstra, [1989]; cited from earlier work
Bombyx. mori = system: Bombyx. mori; set-up: method as in Hua et al., [2000]; Hansen et al., [2010]; conditions: ref Hua et al., [2000], Hansen et al., [2010]; cited from earlier work
Manduca sexta = system: Manduca sexta; set-up: method as in Kim et al., [2004]; conditions: ref Kim et al., [2004]; cited from earlier work

| Substance | bioluminescence response (receptor activation) (Rhopr-CRZR-α; Rhopr-CRZR-α, 10^−6 M, n = 3) | bioluminescence response (receptor activation) (Rhopr-CRZR-β; Rhopr-CRZR-β, 10^−6 M, n = 3) | increase in heartbeat frequency in vitro ([1]; dsARG injected adults, vs dsCRZR unpaired t-test p = 0.0096) [beats/min] | heartbeat rate in vitro (in words) ([1]; dsARG injected insects, unpaired t-test p = 0.0096) | increase in heartbeat frequency in vitro ([1]; dsCRZR injected adults, vs dsARG unpaired t-test p = 0.0096) [beats/min] | dark body coloration (Galleria mellonella) | dark body coloration (Gryllus bimaculatus) | heartbeat frequency (5th instar R. prolixus) | heartbeat rate (Periplaneta americana) | EC50 (Rhopr-CRZR-α; Rhopr-CRZR-α transiently expressed in CHOK1-aeq cells, coelenterazine h luminescence over 15 s, 72 h post-transfection, triplicates, three replica plates averaged) [nM] | time of maximum luminescence (Rhopr-CRZR-α; Rhopr-CRZR-α, during the first 5 s following activation, 10^−6 M, n = 3) [s] | EC50 (Rhopr-CRZR-β; Rhopr-CRZR-β transiently expressed in CHOK1-aeq cells, coelenterazine h luminescence over 15 s, 72 h post-transfection, triplicates, three replica plates averaged) [nM] | time of maximum luminescence (Rhopr-CRZR-β; Rhopr-CRZR-β, during the first 5 s following activation, 10^−6 M, n = 3) [s] | dark body coloration (Bombyx. mori) | ecdysis behavior (Manduca sexta) |
| --- | --- | --- | --- | --- | --- | --- | --- | --- | --- | --- | --- | --- | --- | --- | --- |
| pQLTFSTDWamide [Rhopr-AKH, R. prolixus adipokinetic hormone, pQLTFSTDWamide, reference compound] | without effect | without effect | – | – | – | – | – | – | – | – | – | – | – | – | – |
| pQTFQYSRGWTNamide [Rhopr-CRZ, Rhodnius prolixus corazonin neuropeptide, p…amide] | – | – | 7.33 ± 0.8 | significantly increased the heartbeat rate | 2 ± 0.9 | did not have such an effect | did not have such an effect | increase heartbeat frequency in a dose-dependent manner | increases the heartbeat rate | 2.7 | ≤ 5 | 1 | ≤ 5 | did not have such an effect | initiate ecdysis behavior |
| pQVTFSRDWNAamide [Rhopr-ACP, R. prolixus AKH/CRZ-related peptide, p[…]amide, reference compound] | without effect | without effect | – | – | – | – | – | – | – | – | – | – | – | – | – |
